According to ChEMBL document CHEMBL3817811, “Protective effect of α-mangostin against iodixanol-induced apoptotic damage in LLC-PK1 cells” (Bioorg Med Chem Lett, 2016):
Activity calls are given as the source filed them.

Experiments:
LLC-PK1 [1] = test: Cytoprotective activity against 25 mg/ml iodixanol-induced cell damage in pig LLC-PK1 cells assessed as restoration of cell viability at 5 uM preincubated for 2 hrs followed by iodixanol addition measured after 3 hrs by MTT assay relative to control; assay type: functional, Sus scrofa
LLC-PK1 [2] = test: Cytoprotective activity against 25 mg/ml iodixanol-induced cell damage in pig LLC-PK1 cells assessed as inhibition of caspase-3 enzyme activity using DEVD-pNA substrate at 2.5 to 5 uM preincubated for 2 hrs followed by iodixanol addition and subsequent incubation for 3 hrs followed by substrate addition measured after 1 hr by microplate reader analysis; assay type: functional, cell-based; details: Sus scrofa
LLC-PK1 [3] = test: Inhibition of ERK phosphorylation in pig LLC-PK1 cells at 2.5 to 5 uM preincubated for 2 hrs followed by iodixanol addition measured after 3 hrs by western blot analysis; assay type: cell-based; details: Sus scrofa
LLC-PK1 [4] = test: Cytoprotective activity against 25 mg/ml iodixanol-induced cell damage in pig LLC-PK1 cells assessed as inhibition of cleaved caspase-3 expression at 2.5 to 5 uM preincubated for 2 hrs followed by iodixanol addition measured after 3 hrs by western blot analysis; assay type: functional, cell-based; details: Sus scrofa
LLC-PK1 [5] = test: Inhibition of p38 phosphorylation in pig LLC-PK1 cells at 2.5 to 5 uM preincubated for 2 hrs followed by iodixanol addition measured after 3 hrs by western blot analysis; assay type: cell-based; details: Sus scrofa
LLC-PK1 [6] = test: Cytotoxicity against pig LLC-PK1 cells assessed as reduction in cell viability at 1 to 10 uM incubated for 2 hrs by MTT assay; assay type: cell-based, Sus scrofa; details: llc-pk1, 2 h
LLC-PK1 [7] = test: Cytoprotective activity against 25 mg/ml iodixanol-induced apoptosis in pig LLC-PK1 cells assessed as reduction in dead cells preincubated for 2 hrs followed by iodixanol addition measured after 3 hrs by annexin V Alexa Fluor 488/propidium iodide staining based cytometry; assay type: functional, cell-based; details: Sus scrofa
LLC-PK1 [8] = test: Cytoprotective activity against 25 mg/ml iodixanol-induced cell damage in pig LLC-PK1 cells assessed as restoration of cell viability preincubated for 2 hrs followed by iodixanol addition measured after 3 hrs by MTT assay; assay type: functional, cell-based; details: Sus scrofa
LLC-PK1 [9] = test: Inhibition of JNK phosphorylation in pig LLC-PK1 cells at 2.5 to 5 uM preincubated for 2 hrs followed by iodixanol addition measured after 3 hrs by western blot analysis; assay type: cell-based; details: Sus scrofa

COc1c(O)cc2oc3cc(O)c(CC=C(C)C)c(O)c3c(=O)c2c1CC=C(C)C [MANGOSTIN]
active: inhibition (LLC-PK1 [2]) | inhibition (LLC-PK1 [3]) | inhibition (LLC-PK1 [4]) | inhibition (LLC-PK1 [5]) | Activity (LLC-PK1 [7]) Dose-dependent effect | Activity (LLC-PK1 [8]) Dose-dependent effect | inhibition (LLC-PK1 [9])
Non-toxic: Activity (LLC-PK1 [6])
<=90.42%: Activity (LLC-PK1 [1])
